# Source: ChEMBL document CHEMBL3507680, “University of Dundee, Gates Library screen for HepG2 cell viability”
# Several values for one entry are separate records, joined by “and”; a condition that tells them apart may be missing. Identical values can stand only once.
# Experiment: Human HepG2 cell viability assay in 384 well format
# Assay type: toxicity, cell-based
# Parameters: dose 125 nL, time 70.5 hour; cytotoxicity at 70.5 h: concentration not given beside the values
# Conditions: HepG2 cells, read-out: Inhibition
row,Compound,cytotoxicity at 70.5 h
1,Cc1cc(NCCO)nc(-c2ccccc2O)n1,6.62%
2,Cc1cccc(C)c1Nc1noc2c1CN(C(=O)c1c[nH]nc1C)CC2,12.8%
3,COCCOc1ncccc1C(=O)N(C)c1nccs1,-14.2%
4,CC(C)(CNc1cn[nH]c(=O)c1Cl)c1ccc2c(c1)OCO2,-13.4%
5,Cc1nnc2n1CCN(CCOc1ccccc1C#N)C2,11.3%
6,c1cnc2c(CN3CCCCC3c3ccncn3)cnn2c1 (stereo not drawn),-8.22%
7,COc1ccccc1C1(CNCc2cccc(O)c2)CCOCC1,-2.11%
8,CCc1cnc(CNC(=O)NC2CC(C)(C)OC2(C)C)s1 (stereo not drawn),12.1%
9,CC(NCc1cn(CCC(N)=O)c2ccccc12)c1nncn1C (stereo not drawn),23.7%
10,CNC(=O)C1CCN(c2nccc(CCC(F)(F)F)n2)C1 (stereo not drawn),-3.72%
11,CN1CC(=O)N(c2cccc(F)c2)CC12CCN(Cc1nccs1)C2 (stereo not drawn),-1.43%
12,CN1CCN(c2ccccc2NC(=O)NCC[S+](C)[O-])CC1 (stereo not drawn),-7.57%
13,Cc1oncc1C(=O)N1CC[C@H]2[C@H]1CCN2Cc1ccccn1,-3.13%
14,CCN(CC)C(=O)C1(NCc2nc(C)c(C)o2)CCCCC1,-4.63%
15,Cc1nnc(CN(Cc2ccccc2C(F)(F)F)C2CC2)o1,-10.9%
16,CN(C)[C@@H]1CN(C(=O)Cc2ccccc2)[C@@H]2CCCO[C@H]12,15.5%
17,CCCn1[nH]cc/c1=N\C(=O)CN1CCc2c(nc(C3CC3)n2C)C1,-9.16%
18,C1CCC(N2CCCN(c3nc(C4CC4)no3)CC2)C1,0.93%
19,O=C(c1ccc(NC2CC2)nc1)N1CCCC(n2ccnc2)C1 (stereo not drawn),-12.9%
20,Cc1ccc(CNC(=O)C2CCN(C(=O)C(C)C)CC2)n1C,-9.28%
21,Cc1nc(N2CC[C@@H](NC(=O)c3cnccn3)[C@H](O)C2)c2ccsc2n1,-3.33%
22,CCc1nccn1C1CCCN(C(=O)c2cncn2-c2ccccc2)C1 (stereo not drawn),-6.28%
23,O=C(CCn1cc(Cl)cn1)N1CCCC(O)(CO)CC1 (stereo not drawn),-4.26%

row,Compound,cytotoxicity at 70.5 h
1,Nc1nccc(NCc2cc3n(n2)CCCN(C(=O)C2CCC2)C3)n1,-6.62%
2,CC(C)CN(CC(O)c1ccc(F)cc1)C(=O)c1csnn1 (stereo not drawn),14.1%
3,CC(C)NC(=O)N1CCN(CC2CC2)CC2(CC(=O)N(C)C2)C1 (stereo not drawn),-4.82%
4,CN(C(=O)COC1CCCCC1)C1CCN(CC2CCOC2)CC1 (stereo not drawn),-1.92%
5,COCC(=O)N(C)Cc1ccc(F)c(F)c1,28.3%
6,CCN1CCN(CCNC(=O)c2ccn(-c3ccc(F)cc3)n2)CC1,-3.79%
7,c1csc(CN2CCC3(CCCN3CC3CC3)CC2)n1,-4.63%
8,Cc1ncsc1CCN(C)C(=O)CCc1nc2cccnc2n1C,-11.9%
9,Cc1cc(CN2CCC(CNC(=O)Cc3ccc(F)cc3)C2)[nH]n1 (stereo not drawn),-7.47%
10,CN(C)C(=O)CNC(=O)c1ccn(-c2ccc3ccccn23)n1,-8.61%
11,Cc1ccn(CC(=O)Nc2cc(-c3ccncc3)[nH]n2)n1,-2.4%
12,CC(C)n1ccc2cc(C(=O)Nc3nc[nH]n3)ccc21,-15.9%
13,Cc1ccccc1C(=O)N1CC2(COC(C)(C)OC2)C1,9.04%
14,O=C(CCN1CCOCC1)Nc1cccc(CNCc2cccs2)c1,-8.33%
15,COC(=O)c1ccc(CNC(=O)CN2C[C@@H](NC(C)=O)[C@H](C(C)C)C2)o1,-6.07%
16,OCCOCc1n[nH]c2c1CN(Cc1ccccn1)C2,-7.78%
17,Cc1cc(NC(=O)CNC(C)(C)c2ccc3c(c2)OCO3)on1,-2.77%
18,Cc1ccc(CN2CC[C@H]3CO[C@H](CN(C)Cc4ccco4)[C@H]3C2)s1,4.82%
19,Cc1cnn(CC2CN(CC(=O)Nc3nncs3)CCO2)c1 (stereo not drawn),-1.53%
20,CCc1nnc2n1CCN(C(=O)c1cnn(C)c1C1CC1)C2,8.38%
21,Cc1cnc(C)c(N2CCN(CCCc3[nH]nc(C)c3C)CC2)n1,1.19%
22,CCNC(=O)c1ccc2ccc(N(CC)CC)n2c1,-8.54%
23,CCc1nn(-c2cc(Oc3cc(C)ccc3C)ncn2)c(N)c1C#N,-1.76%

row,Compound,cytotoxicity at 70.5 h
1,CC(NC(=O)C(C)(C)C#N)c1ccc(OCC2CC2)c(F)c1 (stereo not drawn),-6.52%
2,CCN(c1ccc(C(=O)Nc2c(C)nn(C(C)C)c2C)cc1)C(C)C,-7.4%
3,Cc1ncc2c(n1)CN(Cc1nnc(Cc3ccccc3)o1)CC2,-3.37%
4,COCCC(=O)N1CCC2(CN(Cc3cccc(F)c3)C2)C1,-7.85%
5,O=C(c1cc(Cl)c2c(c1)OCCO2)N1CCCC(n2cncn2)C1 (stereo not drawn),-10.2%
6,O=C(NCCOc1ccccc1)c1ccc2c(c1)C(=O)NC2=O,3.38%
7,CS(=O)(=O)NCc1cc(=O)n2c(n1)CN(CC1CC1)CCC2,7.49%
8,COc1ccccc1-n1nc(C(C)C)nc1Cc1nnc(N)s1,-12.4%
9,CCN(Cc1cccc(C(=O)Nc2c(C)cnn2C)c1)[C@H]1COC[C@@H]1O,-2.17%
10,O=C(O)[C@@H]1CN(C2CCCCC2)C[C@H]1C1CC1,-13.9%
11,Cc1ccccc1C(=O)NC(C)CN1CCOC1=O (stereo not drawn),-3.59%
12,CC(C)(CNC(=O)C(C)(C)Oc1ccc2c(c1)CCCC2=O)C(N)=O,0.471%
13,CN(C)c1nc(NCCc2cnccn2)ncc1F,-9.9%
14,CCOc1ccc(CNCc2cccnc2N(C)C)cc1,-5.74%
15,CC1CCN(S(=O)(=O)NCC2CCOc3ccccc3C2)CC1 (stereo not drawn),-7.61%
16,COc1ccc(C)c(NC(=O)NCc2ncnn2C)c1,3.43%
17,CN(CC1(CO)CCCC1)c1nc2c(c(=O)[nH]1)Cc1ccccc1OC2,-10%
18,O=C(c1cccs1)N1CC[C@@H]2CN(C3CCOCC3)CCO[C@@H]2C1,-6.31%
19,CN(C)C(=O)[C@@H]1CCO[C@@H]2CCN(c3ncccn3)C[C@H]21,-15.3%
20,Cc1ccc(F)c(S(=O)(=O)NCc2[nH]ncc2Br)c1,-10%
21,CC(O)CN1CCc2onc(C(c3ccccc3)c3ccccc3)c2C1 (stereo not drawn),-10%
22,Cc1cccc(Sc2nccn(C)c2=O)c1,-13.8%
23,Cc1nc(C2CCCN2C(=O)CCc2ccccc2)ncc1C(N)=O (stereo not drawn),-11.8%

row,Compound,cytotoxicity at 70.5 h
1,Cc1ccccc1-c1csc2c(=O)[nH]c(N3CCCC(C(=O)O)C3)nc12 (stereo not drawn),14.6%
2,O=C(NCCc1cccs1)[C@H]1CO[C@H]2CCN(CC3CC3)C[C@H]2C1,-5.6%
3,CC(C)c1cc(CN2CCN(c3cccnc3)CC2)n(C)n1,5.33%
4,CC1CN(C)c2ccccc2CN1C(=O)c1cc[nH]c(=O)c1 (stereo not drawn),-0.482%
5,CCn1c(CC2CCN(S(=O)(=O)N3CCCCC3)CC2)nn(C)c1=O,-3.16%
6,CC(Cn1cccn1)NC(=O)Nc1ccccn1 (stereo not drawn),-8.38%
7,O=C(O)c1c(NC2CCC2)ncc2c1CCN(C1CCOC1)C2 (stereo not drawn),-6.13%
8,COc1cccc(C(=O)N2CCCC2c2ncc3c(n2)CCN(C)C3)c1 (stereo not drawn),-0.392%
9,O=C(C1CCN(c2nc3nc[nH]c(=O)c3s2)CC1)N1CCCCC1,-15.6%
10,O=C(c1cscn1)N1CCC(Cn2cc(-c3ccsc3)nn2)CC1,-8.02%
11,CS(=O)(=O)NCCCNC(=O)c1cccc(-n2cccc2)c1,-1.21%
12,CN(C)CC1(O)CCCN(c2ccnc3c(C(F)(F)F)cccc23)C1 (stereo not drawn),-5.96%
13,CC(C)c1cc(C(=O)NCCc2nc(-c3cccnc3)n[nH]2)[nH]n1,11.1%
14,CCC(O)Cn1cc(C2=CCN(Cc3cc(O)nc(C)n3)CC2)cn1 (stereo not drawn),10.8%
15,CCN(CC(=O)NC)C(=O)c1cc(-c2cccc(Cl)c2)no1,-2.85%
16,Cc1ccc(C(C(=O)NCCN2CCC(CO)CC2)N(C)C)cc1 (stereo not drawn),27.1%
17,Fc1ccc(OCc2nnc([C@H]3CCN(Cc4cccnc4)C3)o2)cc1,-6.19%
18,CC(=O)N1CCN(C(=O)c2cnc(OC(C)C)c(Cl)c2)CC1,-13.6%
19,Cc1csc(CN2CCC(C(=O)O)(n3ccc(-c4ccco4)n3)CC2)n1,-7.21%
20,Clc1cccc(-n2cnnn2)c1N1CCCC1,3.81%
21,CCC1CCCN(C(=O)Cc2csc(-c3ncccn3)n2)C1 (stereo not drawn),36.3%
22,CN1CC(Nc2nc3c(cnn3-c3ccccc3)c(=O)[nH]2)CCC1=O (stereo not drawn),-10.2%
23,Cc1cc(C)n2ncc(CN3CCC(n4cc(CCO)nn4)CC3)c2n1,-1.82%

row,Compound,cytotoxicity at 70.5 h
1,NC(=O)c1cc2c(nc1Oc1ccccc1CN1CCCCC1)CCC2,-15%
2,O=C(Cc1cccs1)Nc1cnn(C2CCOC2)c1 (stereo not drawn),40.6%
3,Cc1csc(C(=O)N2CC(S(=O)(=O)C3CCCCC3)C2)c1,-6.45%
4,CCc1nc(CN2CCCC(NCCn3cncn3)C2)no1 (stereo not drawn),-8.1%
5,Cc1ncsc1C(=O)NCc1ccnc(N2CCN(C)CC2)c1,-7.54%
6,Fc1cccc(-c2cccc(N3CCC(NC4CCCOC4)CC3)c2)c1 (stereo not drawn),33.8%
7,COc1ccccc1CC1CCCN(CCC(N)=O)C1 (stereo not drawn),5.7%
8,CS(=O)(=O)c1cn[nH]c1C1CCCCN1C(=O)c1cnccn1 (stereo not drawn),-5.18%
9,Cc1cc(=O)n(CC(=O)NC2CCCCC2)c2ccccc12,-8.81%
10,O=C(NCCC1=CCCCC1)NCc1nnc2n1CCC2,-10.8%
11,CCCC1COCCN1Cc1ccc(S(=O)(=O)NC)cc1 (stereo not drawn),7.3%
12,COc1ccc(-c2noc(C3CCS(=O)(=O)C3)n2)cc1OC (stereo not drawn),-10.7%
13,CCn1ccc(NS(=O)(=O)c2cccc(COC)c2)n1,8.56%
14,CCCNC(=O)c1nn(CC)cc1NC(=O)c1c(C)nn(C)c1C,-11.3%
15,O=C(C1=CCCC1)N1CCC[C@]2(C[C@@H](OCc3ccccn3)CO2)C1,-15.2%
16,Cc1cnc(CN2CCOC(CNc3cccnn3)C2)cn1 (stereo not drawn),-8.2%
17,CCc1ncnc2c1CCN(c1ncc(F)cn1)CC2,-7.64%
18,CCO[C@@H]1CCN(C(=O)N(C)C)[C@@H]1Cc1cnn(C)c1,-10.7%
19,Cc1n[nH]c(C)c1NC(=O)CN1CCCC1Cn1cncn1 (stereo not drawn),-0.918%
20,CCOc1cc(=O)n2c(c1C(=O)OCc1ccc(F)cc1)CCCC2,-8.82%

# Same assay, conditions: hepg2, 70.5 h, 70.5 h
row,Compound,Inhibition
1,CC1=Nc2c(c(=O)[nH]n2C2CCCCC2)C(c2ccc(C(=O)O)cc2)S1 (stereo not drawn),-14.53% and -17.54%
